Results from PubChem BioAssay (NCI).
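Values below derive from 48-hour exposures of cells grown in 96-well plates, with endpoints linearly interpolated between the two concentrations bracketing the appropriate inhibition level. Here, GI50 denotes the concentration required for 50% inhibition of growth. TGI: total growth inhibition.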

What was measured:
Experiment in all cases: NCI-60 cell line screen, 48 h
MDA-MB-231 breast = tested on: MDA-MB-231 breast
ACHN renal = tested on: ACHN renal
SK-MEL-2 melanoma = tested on: SK-MEL-2 melanoma
BT-549 breast = tested on: BT-549 breast
MDA-MB-435 = tested on: MDA-MB-435
MOLT-4 leukemia = tested on: MOLT-4 leukemia
SN12C renal = tested on: SN12C renal
UACC-62 melanoma = tested on: UACC-62 melanoma
HOP-62 NSCLC = tested on: HOP-62 NSCLC
K-562 leukemia = tested on: K-562 leukemia

Compound	GI50 (MDA-MB-231 breast)	TGI (MDA-MB-231 breast)	GI50 (ACHN renal)	TGI (ACHN renal)	GI50 (SK-MEL-2 melanoma)	TGI (SK-MEL-2 melanoma)	GI50 (BT-549 breast)	TGI (BT-549 breast)	GI50 (MDA-MB-435)	TGI (MDA-MB-435)	GI50 (MOLT-4 leukemia)	TGI (MOLT-4 leukemia)	GI50 (SN12C renal)	TGI (SN12C renal)	GI50 (UACC-62 melanoma)	TGI (UACC-62 melanoma)	GI50 (HOP-62 NSCLC)	TGI (HOP-62 NSCLC)	TGI (K-562 leukemia)	GI50 (K-562 leukemia)
O=C(CCN1CCCC1)Nc1ccc2c(NCCc3ccccc3)c3ccccc3nc2c1	0.452 µM	1.82 µM	0.51 µM	2.02 µM	0.463 µM	1.63 µM	1.19 µM	2.66 µM	0.416 µM	1.52 µM	0.296 µM	1.56 µM	0.358 µM	1.45 µM	0.316 µM	1.13 µM	0.389 µM	1.76 µM		
N#Cc1cc([N+](=O)[O-])ccc1NC(=O)C(=O)C(C(=O)c1ccc2ccccc2c1)C1OCc2ccccc21 (stereo not given)				> 71.1 µM		16.2 µM						21.8 µM		46.5 µM		36.4 µM		15.6 µM	65.2 µM	
O=S1c2ccccc2NC(c2ccc3ccccc3c2)CC1c1ccccc1 (stereo not given)				52.2 µM		> 100 µM						70.3 µM		> 100 µM		> 100 µM		> 100 µM	37.5 µM	
COc1cc(-c2nc(-c3ccc(-c4nc5ccc(F)cc5[nH]4)cc3)no2)cc(OC)c1OC	2.39 µM	7.66 µM	3.72 µM	13.6 µM	4.21 µM	13.4 µM	3.49 µM	11.1 µM	2.73 µM	10.7 µM	1.99 µM	5.44 µM	3.59 µM	38.3 µM	2.35 µM	6.61 µM	3.21 µM	9.15 µM		
CCCC(=O)c1ccc(=O)n(C)c1				> 100 µM		> 100 µM						> 100 µM		> 100 µM		> 100 µM		> 100 µM	> 100 µM	
O=C(Nc1ccc(Nc2ccncc2)cc1)c1ccc(Nc2ccnc3ccc([N+](=O)[O-])cc23)cc1[N+](=O)[O-]	24.6 µM	> 61.8 µM	15.5 µM	37.2 µM			> 78.5 µM	> 100 µM	23.3 µM	> 100 µM	43.9 µM	> 100 µM	20.4 µM	> 55.5 µM	11.1 µM	58.8 µM	24.8 µM	> 100 µM	> 100 µM	36.4 µM
O=C(Oc1ccc2c(-c3ccccc3)c(C(=O)Nc3ccc(Cl)cc3)c(=O)oc2c1)c1ccccc1				> 100 µM		> 100 µM						> 100 µM		> 100 µM		> 100 µM		> 100 µM	> 100 µM	
O=C(Cc1csc2nc(-c3ccc(Br)cc3)cn12)N/N=C/c1ccc(Cl)cc1Cl	26.2 µM	> 100 µM	22.6 µM	53.6 µM	72 µM	> 100 µM	25.9 µM	76.9 µM	31.4 µM	> 100 µM		26.3 µM	84.7 µM	> 100 µM	23.3 µM	67.7 µM	16.6 µM	35 µM		
O=C(O)c1cn(C2CC2)c2cc(N3CCNCC3)c(F)cc2c1=O	> 100 µM	> 100 µM	> 100 µM	> 100 µM			> 100 µM	> 100 µM	> 100 µM	> 100 µM			> 100 µM	> 100 µM	> 100 µM	> 100 µM	> 100 µM	> 100 µM		
CCOc1ccc(NCC2CC/C(=C\c3ccc(Cl)cc3)C2=O)cc1 (stereo not given)				> 60.3 µM		58.7 µM						69.8 µM		> 60.3 µM		> 64.3 µM		> 100 µM	34.9 µM	
CN(C(=O)C12C3C4C1C1C2C3C41C(O)C(C)(C)C)C(C)(C)C (stereo not given)				> 100 µM		> 100 µM						> 100 µM		> 100 µM		> 100 µM		> 100 µM	> 100 µM	
CC(=O)OCCOCNC(=S)N/N=C(\C)c1cccs1				> 100 µM		> 100 µM						> 100 µM		> 100 µM		> 100 µM		> 100 µM	> 100 µM	
c1ccc2c(c1)Sc1ccccc1N2C1CN2CCC1CC2 (stereo not given)				36.1 µM		16.8 µM						28.1 µM		29.1 µM		34.5 µM		25.9 µM	29.5 µM	
CN1C(=O)CCC1c1ccc2c(c1)oc(=O)n2C (stereo not given)				> 100 µM		> 100 µM						> 100 µM		> 100 µM		> 100 µM		> 100 µM	> 100 µM	
ClC1c2ccccc2C2(c3ccccc3)OOC1(c1ccccc1)O2 (stereo not given)				2.89 µM		5.64 µM						3.56 µM		2.9 µM		3.66 µM		22.9 µM		
CNc1ccc([N+](=O)[O-])c2c(NCCCN(C)C)ccnc12				> 100 µM		> 100 µM						> 100 µM		> 100 µM				> 100 µM	> 100 µM	
